# US8846747B2, “Compounds and methods for altering lifespan of eukaryotic organisms” (University of Rochester, priority 2009, dated 2014)
# Key:
# [1] = system: DeaD strain BB579; assay: yeast Death of Daughters (DeaD) lifespan assay, reversal of nicotinamide (NAM) lifespan shortening; format: cell-based, S. cerevisiae (yeast); details: for fold induction at 0.125 µM / EC50: Saccharomyces cerevisiae; for fold induction at 0.125 µM: BB579, compound 125 nM; for fold induction at 0.125 µM / average improvement, 0.5 to 100 nM: fold improvement in DeaD lifespan; for fold induction at 0.125 µM / average improvement, 250 nM to 1μM / average improvement, 0.5 to 100 nM: 0.75 mM NAM; for average improvement, 250 nM to 1μM: fold improvement in DeaD lifespan (OD600 at 60 h normalized to no drug control), compound 250 nM to 1μM; for EC50: BB579, read-out: C50 (concentration that yields half the maximal activity) by DeaD assay; for average improvement, 0.5 to 100 nM: compound 0.5 to 100 nM
# Procedure: The C50 (50% maximal activity) is a measure of the efficacy of a compound as a LAC and is determined by quantifying the dose-response curve for each LAC by DeaD assay in the presence and absence of nicotinamide. The C50 is the concentration of LAC that yields half the maximal activity. Dose response curves will generally peak and then decline. The decline is most likely due to toxicity at higher LAC concentrations. The C50 is determined relative to the maximal lifespan extension (the peak value). C50 values are provided for C1-5.
# The compounds listed in Table 1 of Example 3 were assessed for their anti-aging activities using the yeast Death of Daughters (DeaD) explicative lifespan assay. Specifically, the compounds were assessed for their capacity to reverse the lifespan shortening effect of exogenous nicotinamide (NAM), which is a known inhibitor of the anti-aging protein Sir2p (Anderson et al., 2003; Bitterman et al., 2002). These compounds were compared to the activities of known cluster 1 compounds, S3-5, and #3-11.
# “Activity” here is defined herein as the fold improvement in DeaD lifespan in the presence of 0.75 mM NAM relative to lifespan in the absence of cluster 1 compounds, over a range of compound concentrations between 0.5 nm-1 μm. This “activity” value is a means of assessing the usefulness of a compound as a LAC. The assays were performed as follows. DeaD strain BB579 was grown overnight in a permissive (galactose-containing) medium to mid-log phase, and then diluted to an OD600 of 0.0001 in restrictive (glucose-containing) medium with 0.75 mM NAM and the compound to be tested. Cells were then incubated at 30° C. for 3 days, with shaking and OD600 measurement every 20 minutes. The OD600 reading after 60 hours in restrictive medium, normalized to the same measurement for the “no drug” control, was used as the number for comparison.
# Five of the compounds with higher activity than S3-5 were selected for further study and were designated C1-1, C1-2, C1-3, C1-4, and C1-5 (see Table 2, Example 4). All data in FIGS. 1A(1)-(6) are from media containing 0.75 mM NAM. Note the different ranges of the X axes in FIGS. 1A(1)-(6)—very different C50 values for the compounds of the present invention compared the known C1 cluster compounds. […] All five had C50 values below 50 nM, while the C50 value for S3-5 was about 650 nM, and the C50 for S1-9 was about 350 nM.
# [2] = system: strain FY839 (healthy wild-type); assay: Toxicity of compounds by yeast growth assay; format: cell-based; details: FY839, inset in FIG. 2
# Procedure: The toxicity of compounds C1-1, C1-2, C1-3, C1-4, and C1-5 in yeast was assessed by determining their effects on growth of a wild-type yeast strain. FIG. 2 is a graphical representation of the toxicity data. The yeast used was strain FY839 (healthy wild-type) growing in SCD. At 12 hours all were in log phase. […] This concentration is many-fold higher than the effective concentrations of these compounds as assessed by DeaD lifespan assays.
# [3] = system: RAW 264.7 cells; assay: LPS-induced TNF-α secretion from RAW 264.7 cells (ELISA); format: cell-based, murine; details: compound 1 micromolar, LPS 10 ng/ml for 6 hrs; FIG. 3
# Procedure: FIG. 3. […] To obtain the data summarized in FIG. 3, RAW […] cells were incubated with Scrims (compounds of present invention) (1 uM), PI3K inhibitor positive control (LY-294002; 25 uM) or vehicle (DMSO) for 1 hr. LPS (10 ng/ml) was added to the medium. 6 hrs post LPS administration medium was collected and analyzed for TNFa levels using ELISA.
# In vitro anti-inflammatory activity in RAW 264.7 cells (murine leukaemic monocyte macrophage cell line): Lipopolysaccharide (LPS)-induced secretion of cytokines from RAW cells is a recognized in vitro assay for anti-inflammatory drugs. The anti-inflammatory activities of C1-1, C1-2, C1-3, C1-4, and C1-5 in the RAW cell model. RAW cells exposed to LPS were incubated with each of the five molecules at 1 micromolar concentration. The PIK3 inhibitor LY-294002 was used at 25 micromolar as a positive control. […] LPS was administered at 10 ng/ml for 6-hrs. TNF-α levels were quantified by ELISA assay. Results are presented as % of control with standard deviations of three replicates.
Structure (SMILES),fold induction at 0.125 µM [1],"average improvement, 250 nM to 1μM [1]",other results
CCC(=O)C1C(=O)CC(C(C)C)CC1=O (stereo not shown) [compound 22932],1.76,1.80,
CCCCCCC1CC(=O)C(C(C)=O)C(=O)C1 (stereo not shown) [compound 22926],0.99,1.87,
"CC(=O)C1C(=O)CC(c2cccs2)CC1=O (stereo not shown) [SRI# 22933, 1,3-cyclohexanedione, 2-acetyl 5-[thien-2-yl]-]",,,EC50 [1]: < 50 nM; toxic effects on growth at concentrations below 1 μM [2]: little or no toxic effects on growth; reduction of secreted TNF-α relative to vehicle treated cells [3]: exhibited anti-inflammatory activity
CC(=O)C1C(=O)CC(c2cn(C)c3ccccc23)CC1=O (stereo not shown) [compound 22939],,1.60,
CC(C)C(=O)C1C(=O)CC(c2cccs2)CC1=O (stereo not shown) [compound 22898],,1.37,
CC(=O)C1C(=O)CC(c2ccc(F)cc2)CC1=O (stereo not shown) [compound 22850],,1.59,
CCC1CC(=O)C(C(C)=O)C(=O)C1 (stereo not shown) [compound 22941],,1.62,
CC(=O)C1C(=O)CC(C(C)C)CC1=O (stereo not shown) [compound 22931],1.86,2.09,
CC(=O)C1C(=O)CC(C2CC3C=CC2C3)CC1=O (stereo not shown) [compound 22856],3.18,2.18,
CCCCC1CC(=O)C(C(=O)CC)C(=O)C1 (stereo not shown) [compound 22943],2.79,2.33,
"CCC(=O)C1C(=O)CC(C2CC3C=CC2C3)CC1=O (stereo not shown) [SRI# 22965, 1,3-cyclohexanedione, 2-propanoyl-5-[bicyclo[2.2.1]hept-2-en-5-yl]-]",,,EC50 [1]: < 50 nM; reduction of secreted TNF-α relative to vehicle treated cells [3]: exhibited anti-inflammatory activity
Cc1ccc(C2CC(=O)C(C(=O)C3CC3)C(=O)C2)cc1 (stereo not shown) [compound 22824],1.32,1.42,
"CCCCC1CC(=O)C(C(C)=O)C(=O)C1 (stereo not shown) [SRI# 22942, 1,3-cyclohexanedione, 2-acetyl-5-butyl-]",,,EC50 [1]: < 50 nM; toxic effects on growth at concentrations below 1 μM [2]: little or no toxic effects on growth; reduction of secreted TNF-α relative to vehicle treated cells [3]: exhibited anti-inflammatory activity
O=C1CC(C2CCCCC2)CC(=O)C1C(=O)c1ccccc1 (stereo not shown) [compound 22845],1.99,2.11,
O=C1CC(c2ccc(F)cc2)CC(=O)C1C(=O)C1CC1 (stereo not shown) [compound 22835],2.48,2.21,
CCC(=O)C1C(=O)CC(c2cccs2)CC1=O (stereo not shown) [compound 22930],2.21,2.33,
O=C1CC(c2cccs2)CC(=O)C1C(=O)C1CC1 (stereo not shown) [compound 22897],1.25,1.85,
CCC(=O)C1C(=O)CC(c2ccco2)CC1=O (stereo not shown) [compound 22791],1.77,2.15,
O=C1CC(c2ccc(Cl)cc2Cl)CC(=O)C1C(=O)C1CC1 (stereo not shown) [compound 22889],,1.64,
CC(=O)C1C(=O)CC(c2c(F)cccc2Cl)CC1=O (stereo not shown) [compound 22847],3.25,2.17,
CCCC(=O)C1C(=O)CC(c2cn(C)c3ccccc23)CC1=O (stereo not shown) [compound 22947],,1.64,

Structure (SMILES),fold induction at 0.125 µM [1],"average improvement, 250 nM to 1μM [1]",other results
"CCC(=O)C1C(=O)CC(C2CCCCC2)CC1=O (stereo not shown) [SRI# 22788, 1,3-cyclohexanedione, 2-propanoyl-5-cyclohexyl-]",,,EC50 [1]: < 50 nM; toxic effects on growth at concentrations below 1 μM [2]: little or no toxic effects on growth; reduction of secreted TNF-α relative to vehicle treated cells [3]: exhibited anti-inflammatory activity
CCC(=O)C1C(=O)CC(C2CCCCC2)CC1=O (stereo not shown) [compound 22788],3.4,2.74,"average improvement, 0.5 to 100 nM [1]: 1.75"
CCC(=O)C1C(=O)CC(c2c(F)cccc2Cl)CC1=O (stereo not shown) [compound 22789],2.61,2.62,"average improvement, 0.5 to 100 nM [1]: 1.30"
CC(=O)C1C(=O)CC(c2ccc(Cl)cc2Cl)CC1=O (stereo not shown) [compound 22840],2.24,1.87,
"CCCC(=O)C1C(=O)C(C(C)=O)C(=O)CC1CC(C)CCC (stereo not shown) [#3-11, reference compound]",,1.30,
CC(=O)C1C(=O)CC(c2ccco2)CC1=O (stereo not shown) [compound 22848],,1.58,
CCC(=O)C1C(=O)CC(c2ccc(F)cc2)CC1=O (stereo not shown) [compound 22790],2.85,2.64,"average improvement, 0.5 to 100 nM [1]: 1.37"
CCCCCCC1CC(=O)C(C(=O)CC)C(=O)C1 (stereo not shown) [compound 22927],,1.43,
CCC(=O)C1C(=O)CC(c2ccc3c(c2)OCO3)CC1=O (stereo not shown) [compound 22936],,1.46,
COc1cc(OC)c(C2CC(=O)C(C(=O)C3CC3)C(=O)C2)c(OC)c1 (stereo not shown) [compound 22821],1.27,1.62,
CCCCCC1CC(=O)C(C(=O)CC)C(=O)C1 (stereo not shown) [compound 22945],1.96,2.54,
CC(=O)C1C(=O)CC(c2ccc3c(c2)OCO3)CC1=O (stereo not shown) [compound 22935],,1.51,
CCC(=O)C1C(=O)CC(C2CC3C=CC2C3)CC1=O (stereo not shown) [compound 22965],3.65,2.57,"average improvement, 0.5 to 100 nM [1]: 1.72"
O=C1CC(c2ccccc2)CC(=O)C1C(=O)C1CC1 (stereo not shown) [compound 22878],2.62,2.11,
CCCCCC1CC(=O)C(C(C)=O)C(=O)C1 (stereo not shown) [compound 22944],2.72,2.28,"average improvement, 0.5 to 100 nM [1]: 1.21"
CC(C)C(=O)C1C(=O)CC(c2ccc(F)cc2)CC1=O (stereo not shown) [compound 22837],,1.72,
CC(C)C(=O)C1C(=O)CC(c2ccccc2)CC1=O (stereo not shown) [compound 22880],1.49,1.59,
CC(=O)C1C(=O)CC(c2cccs2)CC1=O (stereo not shown) [compound 22933],2.71,2.55,"average improvement, 0.5 to 100 nM [1]: 1.70"
CC(C)C(=O)C1C(=O)CC(c2ccc(Cl)cc2Cl)CC1=O (stereo not shown) [compound 22890],,1.46,
CCCCC1CC(=O)C(C(C)=O)C(=O)C1 (stereo not shown) [compound 22942],2.87,2.49,"average improvement, 0.5 to 100 nM [1]: 1.71"
